Experimental data reported in ChEMBL document CHEMBL4476867, “Hydroxy formamide derivatives and their use” (2016).

Tests used:
Tolloid-like protein 2 = target: T1, Tolloid-like protein 2 (Homo sapiens, UniProt Q9Y6L7); assay: Inhibition of C-terminal Avi-6x-His epitope tagged and N-terminal human RAGE signal sequence tagged recombinant human TLL2 (26 to 1015 amino acids) expressed in CHOE1A cells incubated for 60 mins with promyostatin peptide substrate by FRET based assay; format: cell-based
T1 sequence (Q9Y6L7 whole entry): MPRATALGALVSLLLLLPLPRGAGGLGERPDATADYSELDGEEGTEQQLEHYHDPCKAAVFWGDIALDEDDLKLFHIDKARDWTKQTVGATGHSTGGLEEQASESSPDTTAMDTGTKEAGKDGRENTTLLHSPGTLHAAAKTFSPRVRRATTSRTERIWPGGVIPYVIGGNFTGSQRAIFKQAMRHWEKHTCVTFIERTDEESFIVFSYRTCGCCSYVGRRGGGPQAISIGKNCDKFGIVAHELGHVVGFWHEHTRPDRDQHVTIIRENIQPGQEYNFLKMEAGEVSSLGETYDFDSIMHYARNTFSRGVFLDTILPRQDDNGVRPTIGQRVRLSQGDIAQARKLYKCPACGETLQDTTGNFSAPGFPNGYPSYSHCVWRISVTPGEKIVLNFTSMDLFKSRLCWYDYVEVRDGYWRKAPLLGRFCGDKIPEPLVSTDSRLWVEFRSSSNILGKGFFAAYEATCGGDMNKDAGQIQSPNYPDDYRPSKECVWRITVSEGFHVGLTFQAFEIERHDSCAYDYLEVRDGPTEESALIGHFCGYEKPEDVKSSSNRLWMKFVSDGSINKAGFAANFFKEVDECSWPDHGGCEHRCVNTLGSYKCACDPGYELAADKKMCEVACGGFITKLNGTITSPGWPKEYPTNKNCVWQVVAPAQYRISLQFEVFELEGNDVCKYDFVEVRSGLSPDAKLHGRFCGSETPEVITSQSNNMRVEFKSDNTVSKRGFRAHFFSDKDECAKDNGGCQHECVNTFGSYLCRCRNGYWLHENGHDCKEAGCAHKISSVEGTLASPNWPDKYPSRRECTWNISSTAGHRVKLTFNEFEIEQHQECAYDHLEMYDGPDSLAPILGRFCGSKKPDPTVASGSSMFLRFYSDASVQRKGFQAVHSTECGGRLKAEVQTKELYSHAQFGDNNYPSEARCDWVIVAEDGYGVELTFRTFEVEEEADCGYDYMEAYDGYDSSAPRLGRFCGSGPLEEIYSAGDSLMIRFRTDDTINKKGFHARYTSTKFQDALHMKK

[1] = Reduction in PICP levels in human cardiac fibroblasts incubated for 24 to 48 hrs by ELISA; format: functional
Method in brief: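 Human cardiac fibroblasts no older than passage 6 were seeded at 10,000 to 15,000 cells per well in 96-well plates and, one day later, exposed for 24 to 48 hr at 37° C to treatment in ficoll crowding EMEM with 100 μM ascorbic acid and less than 0.3% DMSO. IC50 was determined in GraphPad Prism from a log(inhibitor)-response fit of procollagen I C-terminal propeptide levels in the medium, measured by Quidel ELISA and expressed relative to untreated controls.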

Tolloid-like protein 1 = Tolloid-like protein 1 (Homo sapiens, UniProt O43897, I156V/N221S/V284A); assay: Inhibition of recombinant human TLL1 I156V/N221S/V284A mutant expressed in CHOE1A cells pre-incubated for 10 mins before promyostatin peptide substrate addition and measured after 60 mins by FRET based assay; format: cell-based
[2] = target: T2, Bone morphogenetic protein 1 (Homo sapiens, UniProt P13497); assay: Inhibition of C-terminal FLAG-6x-His epitope tagged and N-terminal human RAGE signal sequence tagged human BMP1 (23 to 721 amino acids) expressed in CHO-E1 cells pre-incubated for 10 mins before promyostatin peptide substrate addition and measured after 30 mins using 50 nM BMP1 by FRET based assay; format: cell-based
T2 sequence (P13497 whole entry): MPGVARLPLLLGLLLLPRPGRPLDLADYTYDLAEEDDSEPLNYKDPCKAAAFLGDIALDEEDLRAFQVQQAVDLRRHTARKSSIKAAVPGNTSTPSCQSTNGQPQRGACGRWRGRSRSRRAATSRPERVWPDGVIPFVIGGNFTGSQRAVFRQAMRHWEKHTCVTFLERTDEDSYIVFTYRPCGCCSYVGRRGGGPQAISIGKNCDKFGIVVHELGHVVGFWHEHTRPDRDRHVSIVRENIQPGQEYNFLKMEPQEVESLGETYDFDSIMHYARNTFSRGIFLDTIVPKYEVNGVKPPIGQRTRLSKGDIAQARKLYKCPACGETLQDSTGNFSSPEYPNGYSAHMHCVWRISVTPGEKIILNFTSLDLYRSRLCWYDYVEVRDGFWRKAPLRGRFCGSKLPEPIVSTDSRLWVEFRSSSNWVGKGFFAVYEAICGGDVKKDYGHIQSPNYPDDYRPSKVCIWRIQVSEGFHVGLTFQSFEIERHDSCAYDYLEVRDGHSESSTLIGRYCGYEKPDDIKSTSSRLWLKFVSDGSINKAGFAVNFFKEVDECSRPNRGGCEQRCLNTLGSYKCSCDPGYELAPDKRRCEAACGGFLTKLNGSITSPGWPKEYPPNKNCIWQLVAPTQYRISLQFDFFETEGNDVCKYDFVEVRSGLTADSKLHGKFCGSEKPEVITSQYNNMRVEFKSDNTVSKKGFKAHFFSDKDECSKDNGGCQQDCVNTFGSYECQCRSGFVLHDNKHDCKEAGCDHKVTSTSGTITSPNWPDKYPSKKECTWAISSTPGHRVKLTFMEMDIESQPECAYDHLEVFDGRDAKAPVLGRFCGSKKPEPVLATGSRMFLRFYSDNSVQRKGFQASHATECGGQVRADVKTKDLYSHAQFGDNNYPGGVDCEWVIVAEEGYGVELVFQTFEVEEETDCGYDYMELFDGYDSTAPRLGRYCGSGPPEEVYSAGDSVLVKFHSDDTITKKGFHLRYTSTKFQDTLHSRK

[3] = Reduction in mature collagen deposition levels in human cardiac fibroblasts incubated for 24 to 48 hrs by immunostaining based assay; format: functional
Method in brief: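 Methanol fixation at −20° C for 10 min followed a 24 to 48 hr treatment at 37° C of human cardiac fibroblasts in 96-well plates, in ficoll crowding EMEM with 100 μM ascorbic acid and DMSO under 0.3%. Imaging on an Operetta system captured anti-mature collagen I staining, detected with an Alexa647 secondary antibody, alongside Hoechst-stained nuclei. In GraphPad Prism, an IC50 was fitted to collagen intensity normalised to nuclei count per field.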

[4] = target: T2, Bone morphogenetic protein 1; assay: Inhibition of C-terminal FLAG-6x-His epitope tagged and N-terminal human RAGE signal sequence tagged human BMP1 (23 to 721 amino acids) expressed in CHO-E1 cells pre-incubated for 10 mins before promyostatin peptide substrate addition and measured after 60 mins using 0.5 nM BMP1 by FRET based assay; format: cell-based

Tolloid-like protein 1, sequence (O43897 148-1013 I156V/N221S/V284A limits assumed): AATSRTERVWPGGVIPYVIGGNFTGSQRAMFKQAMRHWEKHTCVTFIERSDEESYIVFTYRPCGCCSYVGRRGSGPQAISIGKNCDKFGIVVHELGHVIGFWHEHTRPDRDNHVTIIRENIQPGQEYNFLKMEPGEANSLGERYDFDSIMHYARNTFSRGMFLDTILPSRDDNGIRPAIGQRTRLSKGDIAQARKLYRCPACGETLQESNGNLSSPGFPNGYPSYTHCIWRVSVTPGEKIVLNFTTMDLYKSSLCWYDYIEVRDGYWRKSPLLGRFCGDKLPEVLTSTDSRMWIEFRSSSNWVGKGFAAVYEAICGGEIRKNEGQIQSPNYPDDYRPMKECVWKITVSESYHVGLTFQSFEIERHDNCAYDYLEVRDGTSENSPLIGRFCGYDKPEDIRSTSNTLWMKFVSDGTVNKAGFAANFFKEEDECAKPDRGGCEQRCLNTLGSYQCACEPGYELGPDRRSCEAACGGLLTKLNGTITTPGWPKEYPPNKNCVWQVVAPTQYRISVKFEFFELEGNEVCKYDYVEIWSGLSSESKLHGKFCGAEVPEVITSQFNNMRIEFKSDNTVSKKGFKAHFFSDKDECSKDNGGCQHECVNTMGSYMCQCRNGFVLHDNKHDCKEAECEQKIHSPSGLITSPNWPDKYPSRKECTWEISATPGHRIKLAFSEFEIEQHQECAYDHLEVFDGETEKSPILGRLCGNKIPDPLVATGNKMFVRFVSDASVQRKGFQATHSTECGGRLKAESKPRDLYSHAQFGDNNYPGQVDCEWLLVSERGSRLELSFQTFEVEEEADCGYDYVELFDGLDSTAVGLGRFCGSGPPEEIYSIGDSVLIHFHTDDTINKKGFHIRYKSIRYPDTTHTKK

## CCCCC[C@H](CN(O)C=O)C(=O)NCNC(=O)c1ccc(-c2ccccc2)o1
Tolloid-like protein 2
  IC50: < 794 nM
[1]
  IC50: < 3980 nM
Tolloid-like protein 1
  IC50: < 398 nM
[2]
  IC50: < 200 nM
[3]
  IC50: < 1000 nM
[4]
  IC50: < 126 nM

## CCCCC[C@@H](C(=O)NCNC(=O)c1ccc(-c2cc(OCC)cc(C(=O)O)c2)o1)[C@@H](CC)N(O)C=O
Tolloid-like protein 2
  IC50: < 794 nM
[1]
  IC50: < 3980 nM
Tolloid-like protein 1
  IC50: < 398 nM
[2]
  IC50: < 200 nM
[3]
  IC50: < 1000 nM
[4]
  IC50: < 126 nM

## CCCCC[C@@H](C(=O)NCNC(=O)c1ccc(-c2ccccc2)o1)[C@@H](CC)N(O)C=O
Tolloid-like protein 2
  IC50: < 794 nM
[1]
  IC50: < 3980 nM
Tolloid-like protein 1
  IC50: < 398 nM
[2]
  IC50: < 200 nM
[3]
  IC50: < 1000 nM
[4]
  IC50: < 126 nM

## CCCCC[C@@H](C(=O)NCNC(=O)c1ccc(-c2ccc(C(=O)N[C@@H](CC(=O)O)C(=O)O)c(OCC)c2)o1)[C@@H](CC)N(O)C=O
Tolloid-like protein 2
  IC50: < 794 nM
[1]
  IC50: < 3980 nM
Tolloid-like protein 1
  IC50: < 398 nM
[2]
  IC50: < 200 nM
[3]
  IC50: < 1000 nM
[4]
  IC50: < 126 nM

## CCCCC[C@@H](C(=O)NCNC(=O)c1ccc(-c2cc(OCC)cc(C(=O)N[C@@H](CC(=O)O)C(=O)O)c2)o1)[C@@H](CC)N(O)C=O
Tolloid-like protein 2
  IC50: < 794 nM
[1]
  IC50: < 3980 nM
Tolloid-like protein 1
  IC50: < 398 nM
[2]
  IC50: < 200 nM
[3]
  IC50: < 1000 nM
[4]
  IC50: < 126 nM

## CCCCC[C@@H](C(=O)NCNC(=O)c1ccc(-c2ccc(C(=O)N[C@H](CC(=O)O)C(=O)O)cc2)o1)[C@@H](CC)N(O)C=O
Tolloid-like protein 2
  IC50: < 794 nM
[1]
  IC50: < 3980 nM
Tolloid-like protein 1
  IC50: < 398 nM
[2]
  IC50: < 200 nM
[4]
  IC50: < 126 nM

## CCCCC[C@@H](C(=O)NCNC(=O)c1ccc(-c2cc(OCC(N)=O)cc(C(=O)O)c2)o1)[C@@H](CC)N(O)C=O
Tolloid-like protein 2
  IC50: < 794 nM
[1]
  IC50: < 3980 nM
Tolloid-like protein 1
  IC50: < 398 nM
[2]
  IC50: < 200 nM
[4]
  IC50: < 126 nM

## CCCCC[C@@H](C(=O)NCNC(=O)c1ccc(-c2ccc(C(=O)O)c(O)c2)o1)[C@@H](CC)N(O)C=O
Tolloid-like protein 2
  IC50: < 794 nM
[1]
  IC50: < 3980 nM
Tolloid-like protein 1
  IC50: < 398 nM
[2]
  IC50: < 200 nM
[4]
  IC50: < 126 nM

## CCCCC[C@@H](C(=O)NCNC(=O)c1ccc(-c2ccc(C(=O)N[C@@H](CCC(=O)O)C(=O)O)cc2)o1)[C@@H](CC)N(O)C=O
Tolloid-like protein 2
  IC50: < 794 nM
[1]
  IC50: < 3980 nM
Tolloid-like protein 1
  IC50: < 398 nM
[2]
  IC50: < 200 nM
[4]
  IC50: < 126 nM

## CCCCC[C@@H](C(=O)NCNC(=O)c1ccc(-c2ccc(CC(=O)N[C@@H](CC(=O)O)C(=O)O)c(OCC)c2)o1)[C@@H](CC)N(O)C=O
Tolloid-like protein 2
  IC50: < 794 nM
[1]
  IC50: < 3980 nM
Tolloid-like protein 1
  IC50: < 398 nM
[2]
  IC50: < 200 nM
[3]
  IC50: < 1000 nM
[4]
  IC50: < 126 nM

## CCCCC[C@@H](C(=O)NCNC(=O)c1ccc(-c2cc(O)cc(P(=O)(O)O)c2)o1)[C@@H](CC)N(O)C=O
Tolloid-like protein 2
  IC50: < 794 nM
[1]
  IC50: < 3980 nM
Tolloid-like protein 1
  IC50: < 398 nM
[2]
  IC50: < 200 nM
[4]
  IC50: < 126 nM
